Key:
Format in all cases: cell-based, murine
RAW 264.7 cells [1] = assay: Poly I:C-induced TNF release by RAW 264.7 cells; details: peptide 10^−15 to 10^−9 M; reduced effects above that
Description: (§1) Murine macrophage-like RAW 264.7 cells were obtained from American Type Culture Collection, and were grown in Dulbecco’s Modified Eagle’s Medium (DMEM, Life Technologies) containing 10% (vol/vol) heat-inactivated fetal bovine serum (FBS, Hyclone Lab. Inc.), penicillin 100 U/ml, and streptomycin 100 μg/ml (BioWhittaker Inc.). Cells were suspended in medium and incubated in 24-well or 48-well tissue-culture plates overnight in a humidified incubator (37 °C, 5% CO2). Growth medium was removed and replaced by Opti-MEM I serum-free medium (Life Technologies) overnight. In the experiments, cell monolayers were stimulated with HMGB1 or LPS, in the absence or presence of MECO-1 or alpha-MSH; cell-free supernatants were assayed for TNF by ELISA or HMGB1 by western blotting.
(§2) Concentrations of TNF and IL-6 were each determined using a commercially available enzyme-linked immunosorbent assay (ELISA) kit (R&D System Inc.) as previously described.[34] The levels of TNF or IL-6 were calculated with reference to standard curves.
(§3) Fig. 2 Cytokine-induced TNF release inhibited by MECO-1. a Lipopolysaccharide (LPS), derived from the cell wall of Gram-negative bacteria, is a TLR4 and TLR2 agonist. RAW 264.7 cells were treated with MECO-1 and LPS simultaneously and incubated overnight. Supernatants were tested for TNF with ELISA. b Poly I:C, synthetic double stranded RNA, is recognized by TLR3. […]

NF-kappa B = assay: NF-kappa-B activity (electrophoretic mobility shift assay) in LPS-treated RAW 264.7 cells; details: LPS 100 ng/ml; peptide 10^-8 M and 10^-6 M; 2 hours; EMSA; two separate experiments
Description: Nuclear extracts were prepared from 1 × 10^6 treated cells using the NE-PER nuclear extraction reagents (Pierce). DNA was biotin labeled using the biotin 3ʹ-end-labeling kit (Pierce) in a 50-µl reaction buffer and 5 pmol of double-stranded NF-kappa-B oligonucleotide (5ʹ-[…]-3ʹ and 3ʹ-[…]-5ʹ, Promega). Electrophoretic mobility shift assays for NF-κB was performed using the Lightshift Chemiluminescent Electrophoretic Mobility Shift Assay kit (Pierce) following the manufacturer’s protocol. Densitometric values for the active transcription factors were obtained using GS-800 Calibrated Densitometer Software (Biorad).[36]
RAW 264.7 cells ([…]) were incubated with LPS (100 ng/ml) with or without MECO-1 or alpha-MSH at 10^-8 M and 10^-6 M for 2 hours. Nuclear extracts were mixed with biotin-labeled oligonucleotides containing binding sites for NF-kappa B and then run on a gel, 4-20% Ready gel TBE, in an electrophoretic mobility shift assay. Data represent mean +/- SEM of two separate experiments.

RAW 264.7 cells [2] = assay: Peptidoglycan (PGN)-induced TNF release by RAW 264.7 cells; details: picomolar range of peptide; waning inhibition at nanomolar concentrations
Description: as §1, §2, §3

For “alpha-melanocyte-stimulating hormone [alpha-MSH]”, the “inhibition of Poly I:C-induced TNF release” value (RAW 264.7 cells [1]) was “up to 90%”, the “rise in NF-kB activity” value (NF-kappa B) was “active in attenuating” and the “inhibition of PGN-induced TNF release” value (RAW 264.7 cells [2]) was “Up to 75%”.

From article PMC5684143, “New melanocortin-like peptide of E. coli can suppress inflammation via the mammalian melanocortin-1 receptor (MC1R): possible endocrine-like function for microbes of the gut” (NPJ Biofilms and Microbiomes, 2017)
